Where two headings read alike, the source gives them in different places.
Tests used:
[1] = target: T1, c-Met (cytoplasmic domain) (Homo sapiens, UniProt P08581); test: c-Met Kinase Assay (same methods as for ALK, with modifications); type: biochemical; conditions: 1 μM ATP (Km level)
T1 construct: 10 ng/mL c-Met (cytoplasmic domain, Invitrogen Corporation #PV3143); purchased Invitrogen Corporation PV3143
Protocol: (§1) Briefly, each 96-well plate was coated with 100 μL/well of 10 μg/mL substrate (phospholipase C-γ) in Tris-buffered saline (TBS). […] The reaction was initiated by adding enzyme (30 ng/ml ALK) and was allowed to proceed at 37° C. for 15 minutes. Detection of the phosphorylated product was performed by adding 100 μl/well of Eu-N1 labeled PT66 antibody (Perkin Elmer # AD0041).
(§2) Data analysis was performed using ActivityBase (IDBS, Guilford, UK). IC50 values were calculated by plotting percent inhibition versus log10 of the concentration of compound and fitting to the nonlinear regression sigmoidal dose-response (variable slope) equation in XLFit (IDBS, Guilford, UK).
Reactions were initiated with 10 ng/mL c-Met (cytoplasmic domain, Invitrogen Corporation #PV3143).

[2] = target: T2, baculovirus-expressed ALK (Homo sapiens, UniProt Q9UM73); test: ALK Kinase Assay (ELISA-type, time-resolved fluorescence); type: biochemical
T2 construct: host or cells: baculovirus expression system
Protocol: as §1, §2

[3] = 10 ng/mL c-Met, read-out: cMet Activity (c-Met kinase inhibition, IC50 class)
[4] = c-Met kinase inhibition, read-out: cMet Activity
[5] = ALK kinase inhibition, 1 μM ATP (Km level), read-out: ALK Activity
[6] = ALK kinase inhibition, 1 μM ATP, read-out: ALK Activity
[7] = 1 μM ATP (Km level), 30 ng/ml ALK, 37° C., 15 minutes, read-out: ALK Activity (ALK kinase inhibition, IC50 class)

T1 sequence (P08581 956-1390 limits assumed): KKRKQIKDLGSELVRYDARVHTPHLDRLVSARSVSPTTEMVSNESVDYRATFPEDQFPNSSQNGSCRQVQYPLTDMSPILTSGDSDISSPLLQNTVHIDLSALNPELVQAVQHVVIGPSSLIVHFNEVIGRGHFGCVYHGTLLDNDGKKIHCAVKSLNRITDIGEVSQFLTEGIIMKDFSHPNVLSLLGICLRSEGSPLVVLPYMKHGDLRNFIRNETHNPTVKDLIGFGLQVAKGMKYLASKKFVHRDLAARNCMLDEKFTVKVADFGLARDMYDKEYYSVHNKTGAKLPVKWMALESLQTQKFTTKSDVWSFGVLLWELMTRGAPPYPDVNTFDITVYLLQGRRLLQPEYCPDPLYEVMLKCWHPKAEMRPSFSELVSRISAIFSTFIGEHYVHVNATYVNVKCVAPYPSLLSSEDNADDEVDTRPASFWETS
T2 sequence (Q9UM73 19-1620): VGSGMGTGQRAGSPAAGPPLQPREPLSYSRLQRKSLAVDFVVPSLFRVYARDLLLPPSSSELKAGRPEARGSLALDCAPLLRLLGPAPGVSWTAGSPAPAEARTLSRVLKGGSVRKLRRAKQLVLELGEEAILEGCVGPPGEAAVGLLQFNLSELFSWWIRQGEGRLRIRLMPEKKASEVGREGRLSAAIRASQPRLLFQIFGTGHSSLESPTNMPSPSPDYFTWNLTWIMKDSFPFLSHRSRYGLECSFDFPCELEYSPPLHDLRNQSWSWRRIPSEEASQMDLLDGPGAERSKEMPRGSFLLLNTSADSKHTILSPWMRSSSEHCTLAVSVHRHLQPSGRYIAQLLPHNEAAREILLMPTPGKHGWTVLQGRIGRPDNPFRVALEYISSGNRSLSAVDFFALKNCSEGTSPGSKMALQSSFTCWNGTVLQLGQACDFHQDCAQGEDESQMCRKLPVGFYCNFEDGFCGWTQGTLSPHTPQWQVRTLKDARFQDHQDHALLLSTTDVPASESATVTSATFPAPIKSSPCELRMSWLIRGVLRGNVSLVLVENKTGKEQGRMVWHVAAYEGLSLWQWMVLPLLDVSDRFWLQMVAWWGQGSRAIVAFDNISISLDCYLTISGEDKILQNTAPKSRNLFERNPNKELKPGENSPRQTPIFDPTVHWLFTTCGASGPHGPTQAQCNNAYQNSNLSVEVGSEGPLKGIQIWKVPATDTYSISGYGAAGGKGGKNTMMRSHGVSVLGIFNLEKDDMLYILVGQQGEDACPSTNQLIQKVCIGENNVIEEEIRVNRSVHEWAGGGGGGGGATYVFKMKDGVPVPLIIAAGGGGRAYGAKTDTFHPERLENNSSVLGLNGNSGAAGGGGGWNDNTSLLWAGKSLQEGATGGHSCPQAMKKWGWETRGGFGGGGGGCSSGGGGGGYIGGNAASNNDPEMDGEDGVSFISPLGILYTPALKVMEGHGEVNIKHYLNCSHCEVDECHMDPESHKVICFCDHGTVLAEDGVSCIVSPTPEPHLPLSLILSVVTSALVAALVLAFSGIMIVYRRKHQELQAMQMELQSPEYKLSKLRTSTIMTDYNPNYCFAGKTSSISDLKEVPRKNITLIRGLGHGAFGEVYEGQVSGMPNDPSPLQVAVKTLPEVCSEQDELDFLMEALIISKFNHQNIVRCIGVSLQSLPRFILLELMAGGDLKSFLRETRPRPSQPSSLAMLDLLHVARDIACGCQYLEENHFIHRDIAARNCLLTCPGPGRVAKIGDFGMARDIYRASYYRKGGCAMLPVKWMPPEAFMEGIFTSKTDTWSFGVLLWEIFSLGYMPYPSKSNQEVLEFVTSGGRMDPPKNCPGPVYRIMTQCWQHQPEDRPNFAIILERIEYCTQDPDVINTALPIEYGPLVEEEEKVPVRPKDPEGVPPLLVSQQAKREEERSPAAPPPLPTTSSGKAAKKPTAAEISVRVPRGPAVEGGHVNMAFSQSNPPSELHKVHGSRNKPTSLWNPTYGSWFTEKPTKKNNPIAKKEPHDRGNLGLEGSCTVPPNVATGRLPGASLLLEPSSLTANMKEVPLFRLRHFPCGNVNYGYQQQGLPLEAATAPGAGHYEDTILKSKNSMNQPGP

An IC50 [1, 3] greater than 10000 nM was found for `COc1cc2c(cc1Nc1ncc(Cl)c(Nc3ccccc3OC)n1)CCN(CC(=O)N(C)C)CC2` [Example 1130, 2-{7-[5-Chloro-4-(2-methoxy-phenylamino)-pyrimidin-2-ylamino]-8-methoxy-1,2,4,5-tetrahydro-benzo[d]azepin-3-yl}-N,N-dimethyl-acetamide] in this work.

An IC50 [1, 3] greater than 10000 nM was found for `COc1cc2c(cc1Nc1ncc(Cl)c(Nc3ccc(C#N)cc3OC)n1)CCN(CC(=O)N(C)C)CC2` [Example 1163, 2-{7-[5-Chloro-4-(4-cyano-2-methoxy-phenylamino)-pyrimidin-2-ylamino]-8-methoxy-1,2,4,5-tetrahydro-benzo[d]azepin-3-yl}-N,N-dimethyl-acetamide] in this work.

An IC50 [1, 4] greater than 10000 nM was found for `COCCN1CCc2cc(Nc3ncc(Cl)c(Nc4ccc(N5CCOCC5)cc4OC)n3)c(OC)cc2CC1` [Example 113, 5-Chloro-N*2*-[8-methoxy-3-(2-methoxy-ethyl)-2,3,4,5-tetrahydro-1H-benzo[d]azepin-7-yl]-N*4*-(2-methoxy-4-morpholin-4-yl-phenyl)-pyrimidine-2,4-diamine] in this work.

An IC50 [1, 3] greater than 10000 nM was found for `COc1cc2c(cc1Nc1ncc(Cl)c(Nc3ccc(N4CCOCC4)cc3)n1)CCN(CC(=O)N(C)C)CC2` [Example 1150, 2-{7-[5-Chloro-4-(4-morpholin-4-yl-phenylamino)-pyrimidin-2-ylamino]-8-methoxy-1,2,4,5-tetrahydro-benzo[d]azepin-3-yl}-N,N-dimethyl-acetamide] in this work.

An IC50 [1, 4] greater than 10000 nM was found for `CCN1C(=O)CCCc2c1ccc(Nc1ncc(Cl)c(Nc3ccc(N4CCOCC4)cc3OC)n1)c2OC` [Example 119, 7-[5-Chloro-4-(2-methoxy-4-morpholin-4-yl-phenylamino)-pyrimidin-2-ylamino]-1-ethyl-6-methoxy-1,3,4,5-tetrahydro-benzo[b]azepin-2-one] in this work.

An IC50 ([1]; read-out: cMet Activity (c-Met Kinase Inhibition, IC50)) greater than 10000 nM was found for `COc1ccc(Nc2nc(Nc3cc4c(cc3OC)CCN(CC(=O)N(C)C)CC4)ncc2Cl)c(OC)c1` [Example 812, 2-{7-[5-Chloro-4-(2,4-dimethoxy-phenylamino)-pyrimidin-2-ylamino]-8-methoxy-1,2,4,5-tetrahydro-benzo[d]azepin-3-yl}-N,N-dimethyl-acetamide] in this work.

An IC50 [1, 3] greater than 10000 nM was found for `COCCOc1ccc(Nc2nc(Nc3cc4c(cc3OC)CCN(CC(=O)N(C)C)CC4)ncc2Cl)c(OC)c1` [Example 1169, 2-(7-{5-Chloro-4-[2-methoxy-4-(2-methoxy-ethoxy)-phenylamino]-pyrimidin-2-ylamino}-8-methoxy-1,2,4,5-tetrahydro-benzo[d]azepin-3-yl)-N,N-dimethyl-acetamide] in this work.

An IC50 ([1]; cMet Activity, c-Met kinase inhibition) greater than 10000 nM was found for `COc1cc2c(cc1Nc1ncc(Cl)c(Nc3ccc(N4CCOCC4)cc3OC)n1)CCN(CC(=O)N(C)C)CC2` [Example 261, 2-{7-[5-Chloro-4-(2-methoxy-4-morpholin-4-yl-phenylamino)-pyrimidin-2-ylamino]-8-methoxy-1,2,4,5-tetrahydro-benzo[d]azepin-3-yl}-N,N-dimethyl-acetamide] in this work.

An IC50 [1, 3] greater than 10000 nM was found for `COc1cc2c(cc1Nc1ncc(Cl)c(Nc3ccc(N4CCOCC4)cc3OC)n1)CCN(CCS(C)(=O)=O)CC2` [Example 1120, 5-Chloro-N*2*-[3-(2-methanesulfonyl-ethyl)-8-methoxy-2,3,4,5-tetrahydro-1H-benzo[d]azepin-7-yl]-N*4*-(2-methoxy-4-morpholin-4-yl-phenyl)-pyrimidine-2,4-diamine] in this work.

An IC50 [2, 5] of less than 100 nM was found for `CNC(=O)c1cccc(F)c1Nc1nc(Nc2ccc3c(c2)CCN(CCOC)CC3)ncc1Cl` [Example 311, 2-{5-Chloro-2-[3-(2-methoxy-ethyl)-2,3,4,5-tetrahydro-1H-benzo[d]azepin-7-ylamino]-pyrimidine-4-ylamino}-3-fluoro-N-methyl-benzamide] in this work.

An IC50 [2, 6] of 100 to 1000 nM was found for `CNC(=O)c1cccc(F)c1Nc1nc(Nc2ccc3c(c2)NC(=O)CCC3(C)C)ncc1Cl` [Example 1574, 2-[5-Chloro-2-(5,5-dimethyl-2-oxo-2,3,4,5-tetrahydro-1H-benzo[b]azepin-8-ylamino)-pyrimidin-4-ylamino]-3-fluoro-N-methyl-benzamide] in this work.

An IC50 [2, 5] of less than 100 nM was found for `CNC(=O)c1cccc(F)c1Nc1nc(Nc2ccc3c(c2)C(C)(C)CCC(=O)N3)ncc1Cl` [Example 396, 2-[5-Chloro-2-(5,5-dimethyl-2-oxo-2,3,4,5-tetrahydro-1H-benzo[b]azepin-7-ylamino)-pyrimidin-4-ylamino]-3-fluoro-N-methyl-benzamide] in this work.

An IC50 [2, 7] of 100 to 1000 nM was found for `CNC(=O)c1cccc(F)c1Nc1nc(Nc2ccc3c(c2)NC(=O)C(NC(C)=O)CC3(C)C)ncc1Cl` (centres unmarked) [Example 1289, 2-[2-(3-Acetylamino-5,5-dimethyl-2-oxo-2,3,4,5-tetrahydro-1H-1-benzazepin-8-ylamino)-5-chloro-pyrimidin-4-ylamino]-3-fluoro-N-methyl-benzamide] in this work.

An IC50 [2, 6] of less than 100 nM was found for `CNC(=O)c1cccc(F)c1Nc1nc(Nc2ccc3c(c2)N(CC(C)C)C(=O)CCC3(C)C)ncc1Cl` [Example 1592, 2-[5-Chloro-2-(1-isobutyl-5,5-dimethyl-2-oxo-2,3,4,5-tetrahydro-1H-benzo[b]azepin-8-ylamino)-pyrimidin-4-ylamino]-3-fluoro-N-methyl-benzamide] in this work.

An IC50 [2, 7] of 100 to 1000 nM was found for `CNC(=O)c1cccc(F)c1Nc1nc(Nc2ccc3c(c2)NC(=O)C(NC(=O)N2CCCC2)CC3(C)C)ncc1Cl` (centres unmarked) [Example 1295, Pyrrolidine-1-carboxylic acid {8-[5-chloro-4-(2-fluoro-6-methylcarbamoyl-phenylamino)-pyrimidin-2-ylamino]-5,5-dimethyl-2-oxo-2,3,4,5-tetrahydro-1H-1-benzazepin-3-yl}-amide] in this work.

An IC50 [2, 7] of 100 to 1000 nM was found for `CNC(=O)c1cccc(F)c1Nc1nc(Nc2ccc3c(c2)NC(=O)C(NC(=O)OC)CC3(C)C)ncc1Cl` (centres unmarked) [Example 1299, {8-[5-Chloro-4-(2-fluoro-6-methylcarbamoyl-phenylamino)-pyrimidin-2-ylamino]-5,5-dimethyl-2-oxo-2,3,4,5-tetrahydro-1H-1-benzazepin-3-yl}-carbamic acid methyl ester] in this work.

An IC50 [2, 6] of 100 to 1000 nM was found for `CNC(=O)c1cccc(F)c1Nc1nc(Nc2ccc3c(c2)OCCCN3C(C)=O)ncc1Cl` [Example 1724, 2-[2-(9-Acetyl-6,7,8,9-tetrahydro-5-oxa-9-aza-benzocyclohepten-3-ylamino)-5-chloro-pyrimidin-4-ylamino]-3-fluoro-N-methyl-benzamide] in this work.

An IC50 [2, 7] of 100 to 1000 nM was found for `CNC(=O)c1cccc(F)c1Nc1nc(Nc2ccc3c(c2)OCCCN3C(=O)OC(C)C)ncc1Cl` [Example 1432, 3-[5-Chloro-4-(2-fluoro-6-methylcarbamoyl-phenylamino)-pyrimidin-2-ylamino]-7,8-dihydro-6H-5-oxa-9-aza-benzocycloheptene-9-carboxylic acid isopropyl ester] in this work.

An IC50 [2, 7] of 100 to 1000 nM was found for `CNC(=O)c1cccc(F)c1Nc1nc(Nc2ccc3c(c2)NC(=O)C(NC(=O)CN(C)C)CC3(C)C)ncc1Cl` (centres unmarked) [Example 1285, 2-{5-Chloro-2-[3-(2-dimethylamino-acetylamino)-5,5-dimethyl-2-oxo-2,3,4,5-tetrahydro-1H-1-benzazepin-8-ylamino]-pyrimidin-4-ylamino}-3-fluoro-N-methyl-benzamide] in this work.

An IC50 [2, 5] of less than 100 nM was found for `CNC(=O)c1ccccc1Nc1nc(Nc2ccc3c(c2)C(C)(C)CCC(=O)N3)ncc1Cl` [Example 381, 2-[5-Chloro-2-(5,5-dimethyl-2-oxo-2,3,4,5-tetrahydro-1H-benzo[b]azepin-7-ylamino)-pyrimidin-4-ylamino]-N-methyl-benzamide] in this work.

From patent publication US8148391B2 (Cephalon, Inc., priority 2006, dated 2012)
